Inconclusive results and toxic doses are left out. Cut-off read from the data, not from the text of the source: active = T/C of 150% or more; inactive = T/C below 125%.
Test system: L1210 leukemia ip in BDF1 mice, survival T/C
Experiment: NCI In Vivo Anticancer Drug Screen. Data for tumor model L1210 Leukemia (intraperitoneal) in B6D2F1 (BDF1) mice
Conditions: endpoint: mean survival time, higher = longer survival
Procedure, shortened: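 Read-out is survival time, reported as the treated-group measurement over the vehicle-control measurement.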

[1] = dose: 50.0 mg/kg/injection, schedule: Q01DX001 (ip), vehicle: saline
[2] = dose: 100.0 mg/kg/injection, schedule: Q04DX003 (ip), vehicle: saline with Tween-80
[3] = dose: 200.0 mg/kg/injection, schedule: Q04DX003 (ip), vehicle: saline with Tween-80
[4] = dose: 400.0 mg/kg/injection, schedule: Q04DX003 (ip), vehicle: saline with Tween-80
[5] = dose: 100.0 mg/kg/injection, schedule: Q01DX001 (ip), vehicle: saline
[6] = dose: 200.0 mg/kg/injection, schedule: Q01DX001 (ip), vehicle: saline
[7] = dose: 400.0 mg/kg/injection, schedule: Q01DX001 (ip), vehicle: saline
[8] = dose: 100.0 mg/kg/injection, schedule: Q04DX002 (ip), vehicle: Klucel (hydroxypropylcellulose) (HPC)
[9] = dose: 200.0 mg/kg/injection, schedule: Q04DX002 (ip), vehicle: Klucel (hydroxypropylcellulose) (HPC)
[10] = dose: 400.0 mg/kg/injection, schedule: Q04DX002 (ip), vehicle: Klucel (hydroxypropylcellulose) (HPC)

Measured: T/C

C=C1CC[N+]2(CC(=O)c3ccc(Br)cc3)CCCC12 (stereo not drawn)
inactive: dose: 12.5 mg/kg/injection, schedule: Q01DX001 (ip), vehicle: saline 92 % of control | dose: 25.0 mg/kg/injection, schedule: Q01DX001 (ip), vehicle: saline 92 % of control | [1] 101 % of control

c1ccc(N(CC2CO2)CC2CO2)cc1 (stereo not drawn)
inactive: [2] 106 % of control | [3] 104 % of control | [4] 112 % of control

c1ccc(-c2oc(-c3ccccc3)c3ccccc23)cc1
inactive: dose: 6.25 mg/kg/injection, schedule: Q01DX009 (ip), vehicle: Klucel (hydroxypropylcellulose) (HPC) 101 % of control | dose: 6.25 mg/kg/injection, schedule: Q04DX003 (ip), vehicle: Klucel (hydroxypropylcellulose) (HPC) 96 % of control | dose: 12.5 mg/kg/injection, schedule: Q01DX009 (ip), vehicle: Klucel (hydroxypropylcellulose) (HPC) 102 % of control | dose: 12.5 mg/kg/injection, schedule: Q04DX003 (ip), vehicle: Klucel (hydroxypropylcellulose) (HPC) 93 % of control | dose: 25.0 mg/kg/injection, schedule: Q01DX009 (ip), vehicle: Klucel (hydroxypropylcellulose) (HPC) 96 % of control | dose: 25.0 mg/kg/injection, schedule: Q04DX003 (ip), vehicle: Klucel (hydroxypropylcellulose) (HPC) 96 % of control

O=S(=O)(c1ccccc1)C1CN=NC1c1ccccc1 (stereo not drawn)
inactive: dose: 50.0 mg/kg/injection, schedule: Q01DX009 (ip), vehicle: acetone 95 % of control | [5] 100 % of control | dose: 100.0 mg/kg/injection, schedule: Q01DX009 (ip), vehicle: acetone 93 % of control | [6] 94 % of control | dose: 200.0 mg/kg/injection, schedule: Q01DX009 (ip), vehicle: acetone 92 % of control | [7] 96 % of control

Cc1ccc(C)c(Cn2cnc3c(=S)nc[nH]c32)c1
inactive: [8] 94 % of control | [9] 94 % of control | [10] 88 % of control

NC(=O)NC(=O)NC(N)=O
inactive: [8] 94 % of control | [9] 102 % of control | [10] 102 % of control

CCCC(CC#N)(CCC)CCC
inactive: dose: 37.5 mg/kg/injection, schedule: Q01DX Z (ip), vehicle: carboxymethylcellulose (CMC) 97 % of control | dose: 75.0 mg/kg/injection, schedule: Q01DX Z (ip), vehicle: carboxymethylcellulose (CMC) 101 % of control | dose: 100.0 mg/kg/injection, schedule: Q01DX Z (ip), vehicle: carboxymethylcellulose (CMC) 95 % of control | dose: 200.0 mg/kg/injection, schedule: Q01DX Z (ip), vehicle: carboxymethylcellulose (CMC) 100 % of control

CN/N=C\c1cc2ccccc2c2ccccc12
inactive: dose: 50.0 mg/kg/injection, schedule: Q01DX001 (ip), vehicle: alcohol 89 % of control | dose: 100.0 mg/kg/injection, schedule: Q01DX001 (ip), vehicle: alcohol 89 % of control | dose: 200.0 mg/kg/injection, schedule: Q01DX001 (ip), vehicle: alcohol 100 % of control | dose: 400.0 mg/kg/injection, schedule: Q01DX001 (ip), vehicle: alcohol 89 % of control

COc1ccc(C(O)c2ccccc2C(=O)Nc2ccccc2)cc1 (stereo not drawn)
inactive: dose: 100.0 mg/kg/injection, schedule: Q01DX009 (ip), vehicle: saline with Tween-80 98 % of control | dose: 200.0 mg/kg/injection, schedule: Q01DX009 (ip), vehicle: saline with Tween-80 88 % of control | dose: 400.0 mg/kg/injection, schedule: Q01DX009 (ip), vehicle: saline with Tween-80 95 % of control

CCCCCCCN(CCCCCCC)CC(O)c1cc2ccc(Cl)cc2c2ncccc12 (stereo not drawn)
inactive: dose: 100.0 mg/kg/injection, schedule: Q01DX009 (sc), vehicle: olive oil, sesame oil, peanut oil 109 % of control | dose: 200.0 mg/kg/injection, schedule: Q01DX009 (sc), vehicle: olive oil, sesame oil, peanut oil 108 % of control | dose: 400.0 mg/kg/injection, schedule: Q01DX009 (sc), vehicle: olive oil, sesame oil, peanut oil 95 % of control

O=NN(CCCl)C(=O)N1CCN(C(=O)N(CCCl)N=O)CC1
inactive: dose: 12.5 mg/kg/injection, schedule: Q01DX001 (ip), vehicle: carboxymethylcellulose (CMC) 112 % of control | dose: 25.0 mg/kg/injection, schedule: Q01DX001 (ip), vehicle: carboxymethylcellulose (CMC) 116 % of control | dose: 200.0 mg/kg/injection, schedule: Q01DX001 (ip), vehicle: carboxymethylcellulose (CMC) 95 % of control | dose: 300.0 mg/kg/injection, schedule: Q01DX001 (ip), vehicle: carboxymethylcellulose (CMC) 90 % of control | dose: 400.0 mg/kg/injection, schedule: Q01DX001 (ip), vehicle: carboxymethylcellulose (CMC) 87 % of control

O=S1(=O)CCCCC1Cl (stereo not drawn)
inactive: dose: 38.0 mg/kg/injection, schedule: Q01DX009 (ip), vehicle: other 96 % of control | dose: 75.0 mg/kg/injection, schedule: Q01DX001 (ip), vehicle: other 100 % of control | dose: 75.0 mg/kg/injection, schedule: Q01DX009 (ip), vehicle: other 89 % of control | dose: 75.0 mg/kg/injection, schedule: Q04DX003 (ip), vehicle: other 98 % of control | dose: 150.0 mg/kg/injection, schedule: Q01DX001 (ip), vehicle: other 100 % of control | dose: 150.0 mg/kg/injection, schedule: Q01DX009 (ip), vehicle: other 91 % of control | dose: 150.0 mg/kg/injection, schedule: Q04DX003 (ip), vehicle: other 98 % of control | dose: 300.0 mg/kg/injection, schedule: Q01DX001 (ip), vehicle: other 103 % of control

CN(C)S(=O)(=O)c1ccc(NC(=O)OC(c2ccccc2)c2ccccc2)cc1
inactive: [5] 91 % of control | [6] 102 % of control | [7] 91 % of control

O=C(O)COc1ccc(F)cc1Cl
inactive: dose: 100.0 mg/kg/injection, schedule: Q01DX009 (ip), vehicle: Klucel (hydroxypropylcellulose) (HPC) 93 % of control | dose: 100.0 mg/kg/injection, schedule: Q04DX003 (ip), vehicle: Klucel (hydroxypropylcellulose) (HPC) 96 % of control | dose: 200.0 mg/kg/injection, schedule: Q01DX009 (ip), vehicle: Klucel (hydroxypropylcellulose) (HPC) 96 % of control | dose: 200.0 mg/kg/injection, schedule: Q04DX003 (ip), vehicle: Klucel (hydroxypropylcellulose) (HPC) 98 % of control | dose: 400.0 mg/kg/injection, schedule: Q04DX003 (ip), vehicle: Klucel (hydroxypropylcellulose) (HPC) 94 % of control

NCCc1c[nH]c2ccccc12
inactive: [1] 104 % of control | [5] 102 % of control | [2] 104 % of control | [6] 91 % of control | [3] 93 % of control | [4] 110 % of control

CCCN1CC2=C1C(=O)c1ccccc1C2=O
inactive: dose: 100.0 mg/kg/injection, schedule: Q01DX001 (ip), vehicle: other 97 % of control | dose: 200.0 mg/kg/injection, schedule: Q01DX001 (ip), vehicle: other 93 % of control | dose: 400.0 mg/kg/injection, schedule: Q01DX001 (ip), vehicle: other 87 % of control

— PubChem BioAssay AID248 (DTP/NCI, 2004)
